Results as given in patent US11324725B2, “Compositions and methods for the inhibition of pruritus” (The United States of America, as represented by the …, priority 2017, dated 2022).
“Also recorded” adds a separate entry of the source.

Columns and labels:
Firefly luciferase = Firefly luciferase (Photinus pyralis, UniProt P08659); assay: Biochemical Firefly luciferase enzymatic counter-screen; details: for Direct effect on Firefly luciferase (in words): FLuc in vitro; for Imax, Fluc in vitro: −100% = 57.5 μM PTC124, n.d. = inhibition not detectable at all
Description: Direct effects of compounds on firefly luciferase enzymatic activity were tested in vitro. A Firefly luciferase enzyme assay was performed on the 1,408 follow-up compounds. To achieve half-maximal reaction velocity, the D-Luciferin substrate concentration equaled Km and the assay was otherwise performed according to Jang et al., ACS Chem. Bio., 7: 1205-1213 (2012) (which is incorporated herein by reference, in its entirety), as follows: 3 μl of substrate-buffer solution (0.01 mM D-Luciferin, 0.01 mM ATP, 50 mM Tris Acetate, 10 mM Mg Acetate, 0.01% Tween-20 and 0.038% BSA final concentrations) were dispensed into white, solid bottom medium bind 1536-well plates (Greiner Bio-One) with a BioRAPTR Flying Reagent Dispenser™ (Beckman Coulter). Compounds were transferred as described for qHTS along with DMSO (as a negative control) and titrations of PTC124 (as a positive control), ranging from the top concentration of 57.5 μM to 4.0 μM in columns 1-4 of each plate as vehicle and positive controls, respectively. Luciferase enzyme-buffer solution (1 μl) (10 nM P. pyralis luciferase in 50 mM Tris Acetate final concentration) was dispensed and after a 5-minute incubation at room temperature, luminescence was read on a ViewLux™ plate reader.

[1] = tested on: soluble guanylate cyclase / pGloSensor-40F reporter in HEK-cGMP-sensor cells; assay: Counter-screen, SNP-stimulated HEK-cGMP-sensor cells; assay type: cell-based, human
Excerpt: In order to identify small molecular compounds that inhibit the Npr1 receptor a high-throughput assay to probe inhibition of the receptor guanylate cyclase Npr1 was developed. The assay was designed taking advantage of Promega's GloSensor™ technology (Promega, Madison, Wis.). This technology involves the expression of a cyclic guanosine monophosphate (cGMP) biosensor, comprised of a firefly luciferase variant that was coupled to the cGMP binding domain of human phosphodiesterase 5A, and loading of cells with a cell-permeable luciferase substrate to monitor cGMP production by Npr1 in real time in live cells. Briefly, human embryonic kidney 293 cells stably expressing the human Npr1 and the pGloSensor™-40F cGMP vector (“pGloSensor™-40F”) were generated. Stimulating these cells with the Npr1 agonists human NppA or NppB, luciferase-induced light production could be detected in a dose-dependent manner. HEK293 cells stably expressing human Npr2 and pGS-40F and cells only expressing pGS-40F were also generated to conduct secondary counter screens. In these cells, NppC or sodium nitroprusside were used to stimulate Npr2 or soluble guanylate cyclase which is endogenously expressed in HEK293 cells, respectively. The Npr2-NppC counter screen was employed to search for agents that minimally effected this agonist-receptor interaction. The Npr2-NppC system was used because the side effects of most drugs occur on related receptors. Npr1 and Npr2 are the most related receptors in sequence and function and there are no additional active receptor subtypes in this family of receptors. The procedure is described in detail below.
First, hNpr1 assays were repeated, at 11 concentrations on all selected compounds, to validate all positive compounds from the primary screen. This confirmed the selection criteria used for the selection of the active compounds. […]

[2] = tested on: HEK-hNpr1-cGMP-sensor cells; assay: Cytotoxicity counter-screen (CellTiter-Glo); assay type: cell-based, human; details: for Imax, cytotoxicity: −100% = 115 μM Digitonin, n.d. = inhibition not detectable at all
Description: (§1) Compound cytotoxicity was tested with Promega's CellTiter-Glo™ assay which measures cellular adenosine triphosphate content, a surrogate of metabolic activity, with a firefly luciferase reagent. A cytotoxicity counter-screen using HEK-hNpr1-cGMP-sensor cells was performed on the 1,408 follow-up compounds. Cells (1.5×10^3) cells were plated in 4 μL C02-independent media in white, solid bottom TC-treated 1536-well plates (Greiner Bio-One). Cells were incubated at 37° C., 5% CO2 and 95% humidity for 16 hours. Compound transfer was performed as described for qHTS along with DMSO and a titration of Digitonin from a top concentration of 115 μM to 3.5 nM in columns 1-4 of each assay plate as vehicle and cytotoxicity controls, respectively. Cells were incubated with compound for 2 hours at 37° C. CellTiter-Glo™ reagent (Promega) (3 μl) was added to each well with a BioRAPTR Flying Reagent Dispenser™ (Beckman Coulter) and plates were incubated for 10 min at room temperature, protected from light. Luminescence was measured on a ViewLux™ plate reader. Data were normalized to the average signal of DMSO-treated wells as 0% and the average signal of wells treated with 115 μM Digitonin as −100% activity and analyzed as above.

C57BL/6N mice = assay: Rotarod performance and gross behavior after JS-11; assay type: in vivo, mouse
Description: All experiments using mice followed NIH guidelines and were approved by the National Institute of Dental and Craniofacial Research ACUC. Behavioral assessment of scratching behavior was conducted as follows: 6-8-week old female C57BL/6N mice (Envigo) were injected intraperitoneally with JS-11 (163 μg) or DMSO (20%) as a vehicle control. Ten minutes later, 100 μg histamine diluted in 10 μl PBS or 8.9 μg CYM5442 diluted in 10 μl ddH2O was injected subcutaneously into the nape of the neck. Scratching behavior was recorded for 30 minutes and is presented in bouts per 30 minutes. One bout was defined as scratching behavior towards the injection site between lifting the hind leg from the ground and either putting it back on the ground or guarding the paw with the mouth. To control for motor impairment by JS-11, rota-rod performance was also assessed 10 minutes after intraperitoneal injection.

[3] = Cytotoxicity counter-screen (CellTiter-Glo); assay type: cell-based, human; details: human, HEK-hNpr1-cGMP-sensor cells; 2 hours with compound, CellTiter-Glo
Description: as §1

Firefly luciferase, sequence (P08659 whole entry): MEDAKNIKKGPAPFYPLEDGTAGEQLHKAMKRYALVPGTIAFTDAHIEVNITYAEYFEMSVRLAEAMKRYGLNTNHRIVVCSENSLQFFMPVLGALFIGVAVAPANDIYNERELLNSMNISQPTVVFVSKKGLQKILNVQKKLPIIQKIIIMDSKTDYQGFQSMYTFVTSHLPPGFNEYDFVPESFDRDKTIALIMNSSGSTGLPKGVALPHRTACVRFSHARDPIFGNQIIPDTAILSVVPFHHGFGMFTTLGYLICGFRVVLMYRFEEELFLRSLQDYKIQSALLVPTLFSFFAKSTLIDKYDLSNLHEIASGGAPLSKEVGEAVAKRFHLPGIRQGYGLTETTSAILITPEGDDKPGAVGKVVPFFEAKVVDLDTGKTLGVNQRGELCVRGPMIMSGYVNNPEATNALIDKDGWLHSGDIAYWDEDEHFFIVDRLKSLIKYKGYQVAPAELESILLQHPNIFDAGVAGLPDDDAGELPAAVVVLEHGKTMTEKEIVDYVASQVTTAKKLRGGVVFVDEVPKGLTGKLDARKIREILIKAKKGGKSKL

Cc1noc(C)c1-c1cc(-c2ccccc2Oc2ccccc2)cn2cncc12 [JS-5, 3,5-dimethyl-4-(6-(2-phenoxyphenyl)imidazo[1,5-a]pyridin-8-yl)isoxazole]
Direct effect on Firefly luciferase (in words) (Firefly luciferase): do not directly inhibit luciferase; also recorded: does not inhibit Firefly luciferase
Effect on SNP-induced GloSensor signals (in words) [1]: do not attenuate SNP dependent cGMP sensor activation; also recorded: does not block SNP-induced GloSensor™ signals
Cytotoxicity (in words) [2]: are not cytotoxic; also recorded: does not produce cytotoxicity

Cc1cc(CNC(=O)c2ccc3c(c2)n(CC2CC2)c(=O)n3C2CCCCC2)on1 [JS-11, 1-cyclohexyl-3-(cyclopropylmethyl)-N-((3-methylisoxazol-5-yl)methyl)-2-oxo-2,3-dihydro-1H-benzo[d]imidazole-5-carboxamide]
Direct effect on Firefly luciferase (in words) (Firefly luciferase): do not directly inhibit luciferase; also recorded: does not inhibit Firefly luciferase
Overall mouse behavior (C57BL/6N mice; 163 μg intraperitoneally): no gross change in overall mouse behavior
Motor coordination (rotarod performance) (C57BL/6N mice; 10 minutes after 163 μg JS-11 intraperitoneally): no impairment of motor coordination; also recorded: not significantly altered
Effect on SNP-induced GloSensor signals (in words) [1]: do not attenuate SNP dependent cGMP sensor activation; also recorded: does not block SNP-induced GloSensor™ signals
Cytotoxicity (in words) [2]: are not cytotoxic; also recorded: does not produce cytotoxicity

COc1ccccc1-c1n[nH]c2ncc(C(=O)NCc3cccnc3)nc12 [JS-6, 3-(2-methoxyphenyl)-N-(pyridin-3-ylmethyl)-1H-pyrazolo[3,4-b]pyrazine-5-carboxamide]
Imax, cytotoxicity [2]: −36 ± 87%
IC50 at 2 h [3]: 45 ± 43 µM

CCC(CC)c1cc([C@H]2CN3CC[C@H]2C[C@@H]3CNS(=O)(=O)c2cccs2)nc(-c2ccncc2)n1 [JS-3, N-(((2R,4S,5R)-5-(6-(pentan-3-yl)-2-(pyridin-4-yl)pyrimidin-4-yl)quinuclidin-2-yl)methyl)thiophene-2-sulfonamide]
IC50 (Firefly luciferase): 25 ± 4 µM
Imax, Fluc in vitro (Firefly luciferase): −1 ± 6%

Cl.O=C1Nc2ccccc2CN(CC2CCCCC2)C12CCNCC2 [JS-1, 4-(cyclohexylmethyl)-4,5-dihydrospiro[benzo[e][1,4]diazepine-3,4′-piperidin]-2(1H)-one hydrochloride]
Imax, Fluc in vitro (Firefly luciferase): −3 ± 3%

Cc1nn2c(c1-c1ccccc1OCc1ccccc1)N(C(=O)Cc1ccc3c(c1)OCO3)CCC2 [JS-8, 2-(benzo[d][1,3]dioxol-5-yl)-1-(3-(2-(benzyloxy)phenyl)-2-methyl-6,7-dihydropyrazolo[1,5-a]pyrimidin-4(5H)-yl)ethan-1-one]
Direct effect on Firefly luciferase (in words) (Firefly luciferase): do not directly inhibit luciferase; also recorded: does not inhibit Firefly luciferase
Effect on SNP-induced GloSensor signals (in words) [1]: do not attenuate SNP dependent cGMP sensor activation; also recorded: does not block SNP-induced GloSensor™ signals
Cytotoxicity (in words) [2]: are not cytotoxic; also recorded: does not produce cytotoxicity
Imax, cytotoxicity [2]: −22 ± 29%
IC50 at 2 h [3]: 49 ± 14 µM
